Literature values in patent US9707273B2, “Peptides for use in the topical treatment of retinal neurodegenerative diseases, in particular in early stages of diabetic retinopathy and other retinal diseases in which neurodegeneration plays an essential role” (FUNDACIÓ HOSPITAL UNIVERSITARI VALL D'HEBRON—INSTITUT DE …, priority 2013, dated 2017).

Conditions: administered in the form of eye drops; Aiello et al. 2008

## Cc1cc(-c2cc(O)ccc2Cl)cc2nnc(Nc3ccc(OCCN4CCCC4)cc3)nc12 [TG100572, 4-chloro-3-(5-methyl-3-{[4-(2-pyrrolidin-I-ylethoxy)phenyl]amino}-1,2,4-benzotriazin-7-yl)phenol]
  reaching the target in the retina after eye drops: able to reach the target in the retina
